Measured values taken from PMC7956643, “Synthesis of Novel Pyrido[1,2-c]pyrimidine Derivatives with 6-Fluoro-3-(4-piperidynyl)-1,2-benzisoxazole Moiety as Potential SSRI and 5-HT1A Receptor Ligands” (International Journal of Molecular Sciences, 2021).
Entries after “also recorded” stand apart in the source; their conditions may differ. Marks after values point to notes of the source that are not given here.

Experiments:
[1] = target: T1, 5-HT1A receptor (Mus musculus, UniProt Q64264); experiment: Effect of WAY-100635 on the hypothermia induced by tested compounds; format: in vivo, CD-1 mice; conditions: mice
T1 construct: from tissue; host or cells: whole animal, male CD-1 mice
T1 sequence (Q64264 1-421): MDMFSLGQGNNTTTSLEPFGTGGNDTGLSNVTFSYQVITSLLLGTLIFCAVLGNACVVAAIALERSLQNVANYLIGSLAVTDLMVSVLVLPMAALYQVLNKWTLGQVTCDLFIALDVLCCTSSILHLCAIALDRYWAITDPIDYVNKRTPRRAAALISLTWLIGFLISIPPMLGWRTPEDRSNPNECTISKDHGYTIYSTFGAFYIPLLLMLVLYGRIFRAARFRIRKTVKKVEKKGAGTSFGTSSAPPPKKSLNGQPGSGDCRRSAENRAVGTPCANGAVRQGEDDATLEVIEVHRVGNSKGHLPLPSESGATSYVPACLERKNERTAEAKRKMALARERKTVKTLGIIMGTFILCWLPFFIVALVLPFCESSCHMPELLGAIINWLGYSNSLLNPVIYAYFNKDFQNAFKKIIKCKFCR
Method: (§1) The experiments were performed on male CD-1 mice (23–40 g). The animals were kept at room temperature (21 ± 2 °C) on a natural day-night cycle (March–October) and housed under standard laboratory conditions. They had free access to food and tap water before the experiment. Each experimental group consisted of 6–8 animals/dose. All the animals were used only once. 8-Hydroxy-2-(di-n-propylamino)tetralin hydro-bromide (8-OH-DPAT, Research Biochemical Inc.) was used as aqueous solution. […] Vehicle group was administered as 10% aqueous solution of dimethyl sulphoxide (DMSO). 8-OH-DPAT was injected subcutaneously (sc); 6a and 7g were given intraperitoneally (ip) in a volume of 10 mL/kg/mice. The obtained data were analyzed by Dunnett’s test (one drug administration) or by the Newman–Keuls test (two drugs administrations). Forced swim test: the obtained data was evaluated by one-way analysis of variance (ANOVA) followed by the Dunnett’s multiple comparisons test: p < 0.05 was considered significant.
(§2) The results were expressed as a change in body temperature (Δt) with respect to the basal body temperature, as measured at the beginning of the experiment.

[2] = target: T1, 5-HT1A receptor; experiment: Body temperature in mice (induced hypothermia); format: in vivo, CD-1 mice
Method: as §1, §2

[3] = tested on: CD-1 mice; experiment: Forced swim test in mice; format: in vivo; conditions: administered 30 min before test
Method: All studies were performed according to the guidelines of the European Community Council (Directive 86/609/EEC) and were approved by the Ethical Committee of the Institute of Pharmacology (88/2016, 05/31/2016). The experiments were performed on male CD-1 mice (23–40 g). The animals were kept at room temperature (21 ± 2 °C) on a natural day-night cycle (March–October) and housed under standard laboratory conditions. They had free access to food and tap water before the experiment. Each experimental group consisted of 6–8 animals/dose. All the animals were used only once. 8-Hydroxy-2-(di-n-propylamino)tetralin hydro-bromide (8-OH-DPAT, Research Biochemical Inc.) was used as aqueous solution. Compounds 6a and 7g were suspended in a 10% aqueous solution of dimethyl sulphoxide (DMSO). Vehicle group was administered as 10% aqueous solution of dimethyl sulphoxide (DMSO). […] The obtained data were analyzed by Dunnett’s test (one drug administration) or by the Newman–Keuls test (two drugs administrations). Forced swim test: the obtained data was evaluated by one-way analysis of variance (ANOVA) followed by the Dunnett’s multiple comparisons test: p < 0.05 was considered significant.
The forced swim test (FST) was carried out according to the method of Porsolt at al.. […] After the first 2 min adaptation period, the total duration of immobility was measured during the last 4 min test. […]

Structure (SMILES): O=c1c(-c2ccccc2)c2ccccn2c(=O)n1CCCCN1CCC(c2noc3cc(F)ccc23)CC1 [Compound 6a, 4-Phenyl-2-{4-[4-(6-fluoro-1,2-benzoxazol-3-yl)-1-piperidyl]butyl}-pyrido[1,2-c]pyrimidine-1,3-dione]
- Δt ± SEM, body temperature ([1]; WAY-100635 0.1 mg/kg sc 15 min before compound 0.6 mg/kg, 30 min): −0.5 ± 0.2 ^b,d °C
- Δt ± SEM, body temperature ([1]; WAY-100635 0.1 mg/kg sc 15 min before compound 0.6 mg/kg, 60 min): −0.4 ± 0.2 ^a,e °C
- Hypothermia induced by compound diminished by WAY-100635 ([1]; WAY-100635 0.1 mg/kg, compound 0.6 mg/kg): 50%
- Δt ± SEM, body temperature ([1]; vehicle + compound 0.6 mg/kg, 30 min): −1.0 ± 0.2 ^c °C
- Δt ± SEM, body temperature ([1]; vehicle + compound 0.6 mg/kg, 60 min): −1.2 ± 0.1 ^c °C
- Functional 5-HT1A receptor activity profile ([2]; concluded from induced hypothermia test in mice): presynaptic agonist of the 5-HT1A receptor; also recorded: presynaptic 5-HT1A agonistic activity
- Induction of hypothermia in mice ([2]; mice): induced hypothermia
- Δt ± SEM, body temperature ([2]; mice, 0.6 mg/kg ip, 30 min): −1.0 ± 0.2 ^b °C
- Δt ± SEM, body temperature ([2]; mice, 0.6 mg/kg ip, 60 min): −1.2 ± 0.1 ^b °C
- Δt ± SEM, body temperature ([2]; mice, 0.6 mg/kg ip, 90 min): −0.9 ± 0.1 ^a °C
- Δt ± SEM, body temperature ([2]; mice, 0.6 mg/kg ip, 120 min): −0.8 ± 0.2 ^a °C
- Δt ± SEM, body temperature ([2]; mice, 1.25 mg/kg ip, 30 min): −1.7 ± 0.3 ^b °C
- Δt ± SEM, body temperature ([2]; mice, 1.25 mg/kg ip, 60 min): −1.7 ± 0.3 ^b °C
- Δt ± SEM, body temperature ([2]; mice, 1.25 mg/kg ip, 90 min): −1.6 ± 0.2 ^b °C
- Δt ± SEM, body temperature ([2]; mice, 1.25 mg/kg ip, 120 min): −1.6 ± 0.3 ^b °C
- Δt ± SEM, body temperature ([2]; mice, 2.5 mg/kg ip, 30 min): −1.6 ± 0.2 ^b °C
- Δt ± SEM, body temperature ([2]; mice, 2.5 mg/kg ip, 60 min): −2.5 ± 0.3 ^b °C
- Δt ± SEM, body temperature ([2]; mice, 2.5 mg/kg ip, 90 min): −2.4 ± 0.3 ^b °C
- Δt ± SEM, body temperature ([2]; mice, 2.5 mg/kg ip, 120 min): −2.0 ± 0.2 ^b °C
- Δt ± SEM, body temperature ([2]; mice, 5 mg/kg ip, 30 min): −2.0 ± 0.2 ^b °C
- Δt ± SEM, body temperature ([2]; mice, 5 mg/kg ip, 60 min): −3.2 ± 0.5 ^b °C
- Δt ± SEM, body temperature ([2]; mice, 5 mg/kg ip, 90 min): −3.1 ± 0.5 ^b °C
- Δt ± SEM, body temperature ([2]; mice, 5 mg/kg ip, 120 min): −2.8 ± 0.5 ^b °C
- Effect in the forced swimming test [3]: inactivity; also recorded: ineffective
